Reference: patent US7998978B2 (Pfizer Inc., priority 2006, dated 2011)
pKi: −log10 of the molar value.

The compounds below were run against T1, JNK1α1 (Homo sapiens, UniProt P45983) (assay: Coupled spectrophotometric (PK/LDH) JNK1α1 assay: % inhibition and Ki determination). Details: @1 uM; read-out: % Inhibition JNK-1.
T1 construct: catalytic domain containing amino acids 1-364 and N-terminal hexahistidine tag; hexahistidine (His6) (N); made in house; host or cells: E. coli BL21 (DE3)
Type: biochemical
Procedure, shortened: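 Initial rates were taken from the absorbance decrease at 340 nm at 30° C. Ki was fitted with a tight-binding model over 11 concentrations (top 100 μM); single-point inhibition was tested at 1 or 10 μM.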

T1 sequence (P45983 1-364): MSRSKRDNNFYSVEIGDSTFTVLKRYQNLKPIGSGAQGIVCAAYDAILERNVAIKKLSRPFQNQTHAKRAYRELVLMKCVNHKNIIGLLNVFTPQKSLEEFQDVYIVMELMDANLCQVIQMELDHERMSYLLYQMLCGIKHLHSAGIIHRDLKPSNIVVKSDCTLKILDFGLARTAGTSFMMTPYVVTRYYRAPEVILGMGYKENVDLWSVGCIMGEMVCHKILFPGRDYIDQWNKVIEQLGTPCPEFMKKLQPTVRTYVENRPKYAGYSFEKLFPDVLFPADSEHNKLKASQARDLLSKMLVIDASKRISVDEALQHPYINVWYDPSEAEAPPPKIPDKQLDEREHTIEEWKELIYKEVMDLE

SMILES	inhibition at 1 µM
O=C(N[C@@H](CO)c1ccccc1)c1cccc2cnc(N[C@H]3CC[C@H](O)CC3)nc12 [Example 471, 2-[(trans-4-hydroxycyclohexyl)amino]-N-[(1R)-2-hydroxy-1-phenylethyl]quinazoline-8-carboxamide]	19%
O=C(NC[C@@H](O)c1ccccc1)c1cccc2cnc(N[C@H]3CC[C@H](O)CC3)nc12 [Example 474, 2-[(trans-4-hydroxycyclohexyl)amino]-N-[(2S)-2-hydroxy-2-phenylethyl]quinazoline-8-carboxamide]	37%
O=C(NCCN1CCNC1=O)c1cccc2cnc(N[C@H]3CC[C@H](O)CC3)nc12 [Example 476, 2-[(trans-4-hydroxycyclohexyl)amino]-N-[2-(2-oxoimidazolidin-1-yl)ethyl]quinazoline-8-carboxamide]	10%
Cc1c(C(C)NC(=O)c2cccc3cnc(N[C@H]4CC[C@H](O)CC4)nc23)cnn1C (stereo partly drawn) [Example 479, N-[1-(1,5-dimethyl-1H-pyrazol-4-yl)ethyl]-2-[(trans-4-hydroxycyclohexyl)amino]quinazoline-8-carboxamide]	13%
O=C(NC1CCCOC1)c1cccc2cnc(N[C@H]3CC[C@H](O)CC3)nc12 (stereo partly drawn) [Example 488, 2-[(trans-4-hydroxycyclohexyl)amino]-N-(tetrahydro-2H-pyran-3-yl)quinazoline-8-carboxamide]	40%
O=C(NCCn1ccnc1)c1cccc2cnc(N[C@H]3CC[C@H](O)CC3)nc12 [Example 491, 2-[(trans-4-hydroxycycbohexyl)amino]-N-[2-(1H-imidazol-1-yl)ethyl]quinazoline-8-carboxamide]	13%
CC(NC(=O)c1cccc2cnc(N[C@H]3CC[C@H](O)CC3)nc12)c1ccncn1 (stereo partly drawn) [Example 492, 2-[(trans-4-hydroxycyclohexyl)amino]-N-(1-pyrimidin-4-ylethyl)quinazoline-8-carboxamide]	12%
O=C(NCCN1CCCC1=O)c1cccc2cnc(N[C@H]3CC[C@H](O)CC3)nc12 [Example 493, 2-[(trans-4-hydroxycyclohexyl)amino]-N-(2-(2-oxopyrrolidin-1-yl)ethyl]quinazoline-8-carboxamide]	11%
O=C(NCCc1cn2ccccc2n1)c1cccc2cnc(N[C@H]3CC[C@H](O)CC3)nc12 [Example 494, 2-[(trans-4-hydroxycyclohexyl)amino]-N-(2-imidazol[1,2-a]pyridin-2-ylethyl)quinazoline-8-carboxamide]	16%
CCn1nc(C)c(CNC(=O)c2cccc3cnc(N[C@H]4CC[C@H](O)CC4)nc23)c1C [Example 496, N-[(1-ethyl-3,5-dimethyl-1H-pyrazol-4-yl)methyl]-2-[(trans-4-hydroxycyclohexyl)amino]quinazoline-8-carboxamide]	41%

Further lines, results first:

inhibition at 1 µM	SMILES
15%	O=C(NCc1ccccn1)c1cccc2cnc(N[C@H]3CC[C@H](O)CC3)nc12 [Example 468, 2-[(trans-4-hydroxycyclohexyl)amino]-N-(pyridin-2-ylmethyl)quinazoline-8-carboxamide]
10%	O=C(NCCc1ccccn1)c1cccc2cnc(N[C@H]3CC[C@H](O)CC3)nc12 [Example 469, 2-[(trans-4-hydroxycyclohexyl)amino]-N-(2-pyridin-2-ylethyl)quinazoline-8-carboxamide]
27%	O=C(N[C@H](CO)c1ccccc1)c1cccc2cnc(N[C@H]3CC[C@H](O)CC3)nc12 [Example 470, 2-[(trans-4-hydroxycyclohexyl)amino]-N-[(1S)-2-hydroxy-1-phenylethyl]quinazoline-8-carboxamide]
25%	C[C@@H](NC(=O)c1cccc2cnc(N[C@H]3CC[C@H](O)CC3)nc12)[C@@H](O)c1ccccc1 [Example 472, 2-[(trans-4-hydroxycyclohexyl)amino]-N-[(1R,2S)-2-hydroxy-1-methyl-2-phenylethyl]quinazoline-8-carboxamide]
34%	O=C(NCc1ccncc1)c1cccc2cnc(N[C@H]3CC[C@H](O)CC3)nc12 [Example 473, 2-[(trans-4-hydroxycyclohexyl)amino]-N-(pyridin-4-ylmethyl)quinazoline-8-carboxamide]
11%	Cc1cccc(CC(C)NC(=O)c2cccc3cnc(N[C@H]4CC[C@H](O)CC4)nc23)n1 (stereo partly drawn) [Example 475, 2-[(trans-4-hydroxycyclohexyl)amino]-N-[1-methyl-2-(6-methylpyridin-2-yl)ethyl]quinazoline-8-carboxamide]
14%	O=C(NCc1ccc[nH]c1=O)c1cccc2cnc(N[C@H]3CC[C@H](O)CC3)nc12 [Example 477, 2-[(trans-4-hydroxycyclohexyl)amino]-N-[(2-oxo-1,2-dihydropyridin-3-yl)methyl]quinazoline-8-carboxamide]
12%	Cc1nnc(CCNC(=O)c2cccc3cnc(N[C@H]4CC[C@H](O)CC4)nc23)[nH]1 [Example 478, 2-[(trans-4-hydroxycyclohexyl)amino]-N-[2-(5-methyl-4H-1,2,4-triazol-3-yl)ethyl]quinazoline-8-carboxamide]
11%	O=C(NCCc1nc2ccccc2[nH]1)c1cccc2cnc(N[C@H]3CC[C@H](O)CC3)nc12 [Example 480, N-[2-(1H-benzimidazol-2-yl)ethyl]-2-[(trans-4-hydroxycyclohexyl)amino]quinazoline-8-carboxamide]
14%	Cc1cccc(CNC(=O)c2cccc3cnc(N[C@H]4CC[C@H](O)CC4)nc23)n1 [Example 481, 2-[(trans-4-hydroxycyclohexyl)amino]-N-[(6-methylpyridin-2-yl)methyl]quinazoline-carboxamide]
13%	CC(Cn1cccn1)NC(=O)c1cccc2cnc(N[C@H]3CC[C@H](O)CC3)nc12 (stereo partly drawn) [Example 482, 2-[(trans-4-hydroxycyclohexyl)amino]-N-[1-methyl-2-(1H-pyrazol-1-yl)ethyl]quinazoline-8-carboxamide]
16%	CCn1cc(CNC(=O)c2cccc3cnc(N[C@H]4CC[C@H](O)CC4)nc23)cn1 [Example 489, N-[(1-ethyl-1H-pyrazol-4-yl)methyl]-2-[(trans-4-hydroxycyclohexyl)amino]quinazoline-8-carboxamide]

Same assay, conditions: @10 uM; read-out: % Inhibition JNK-1

SMILES	inhibition at 10 µM
Cc1cc(C)n(CC(C)NC(=O)c2cccc3cnc(N[C@H]4CC[C@H](O)CC4)nc23)n1 (stereo partly drawn) [Example 483, N-[2-(3,5-dimethyl-1H-pyrazol-1-yl)-1-methylethyl]-2-[(trans-4-hydroxycyclohexyl)amino]quinazoline-8-carboxamide]	71%
CCc1cc(CNC(=O)c2cccc3cnc(N[C@H]4CC[C@H](O)CC4)nc23)on1 [Example 484, N-[(3-ethylisoxazol-5-yl)methyl]-2-[(trans-4-hydroxycyclohexyl)amino]quinazoline-8-carboxamide]	57%
O=C(NCCN1CCCCC1=O)c1cccc2cnc(N[C@H]3CC[C@H](O)CC3)nc12 [Example 486, 2-[(trans-4-hydroxycyclohexyl)amino]-N-[2-(2-oxopiperidin-1-yl)ethyl]quinazoline-8-carboxamide]	50%

Other lines, results leading:

inhibition at 10 µM	SMILES
72%	Cc1nccn1CCNC(=O)c1cccc2cnc(N[C@H]3CC[C@H](O)CC3)nc12 [Example 485, 2-[(trans-4-hydroxycyclohexyl)amino]-N-[2-(2-methyl-1H-imidazol-1-yl)ethyl]quinazoline-8-carboxamide]
51%	Cc1ccc(C(C)NC(=O)c2cccc3cnc(N[C@H]4CC[C@H](O)CC4)nc23)cn1 (stereo partly drawn) [Example 487, 2-[(trans-4-hydroxycyclohexyl)amino]-N-[1-(6-methylpyridin-3-yl)ethyl]quinazoline-8-carboxamide]
40%	O=C(NCc1nnc(C2CC2)[nH]1)c1cccc2cnc(N[C@H]3CC[C@H](O)CC3)nc12 [Example 490, N-[(5-cyclopropyl-4H-1,2,4-triazol-3-yl)methyl]-2-[(trans-4-hydroxycyclohexyl)amino]quinazoline-8-carboxamide]
76%	Cc1cccnc1CC(C)NC(=O)c1cccc2cnc(N[C@H]3CC[C@H](O)CC3)nc12 (stereo partly drawn) [Example 495, 2-[(trans-4-hydroxycyclohexyl)amino]-N-(1-methyl-2-(3-methylpyridin-2-yl)ethyl]quinazoline-8-carboxamide]

Same assay, conditions: JNK-1

SMILES	pKi
O=C(N[C@H]1c2ccccc2C[C@H]1O)c1cccc2cnc(N[C@H]3CC[C@H](O)CC3)nc12 [Example 463, 2-[(trans-4-hydroxycyclohexyl)amino]-N-[(1S,2R)-2-hydroxy-2,3-dihydro-1H-inden-1-yl]quinazoline-8-carboxamide]	6.31
Cn1cncc1CNC(=O)c1cccc2cnc(N[C@H]3CC[C@H](O)CC3)nc12 [Example 465, 2-[(trans-4-hydroxycyclohexyl)amino]-N-[(1-methyl-1H-imidazol-5-yl)methyl]quinazoline-8-carboxamide]	6.11

Now from value to compound:

pKi	SMILES
6.33	O=C(NC1(c2ccccn2)CC1)c1cccc2cnc(N[C@H]3CC[C@H](O)CC3)nc12 [Example 462, 2-[(trans-4-hydroxycyclohexyl)amino]-N-(1-pyridin-2-ylcyclopropyl)quinazoline-8-carboxamide]
6.16	O=C(NC1(c2cccnc2)CC1)c1cccc2cnc(N[C@H]3CC[C@H](O)CC3)nc12 [Example 464, 2-[(trans-4-hydroxycyclohexyl)amino]-N-(1-pyridin-3-ylcyclopropyl)quinazoline-8-carboxamide]
6.02	O=C(N[C@H]1CC[C@@H](CO)CC1)c1cccc2cnc(N[C@H]3CC[C@H](O)CC3)nc12 [Example 466, 2-[(trans-4-hydroxycyclohexyl)amino]-N-[cis-4-(hydroxymethyl)cyclohexyl]quinazoline-8-carboxamide]
5.69	CNC(=O)N1CCC(NC(=O)c2cccc3cnc(N[C@H]4CC[C@H](O)CC4)nc23)CC1 [Example 467, 2-[(trans-4-hydroxycyclohexyl)amino]-N-{1-[(methylamino)carbonyl]piperidin-4-yl}quinazoline-8-carboxamide]
